Tests used:
Format in all cases: in vivo
[1] = test system: Echinochloa crus-galli (ECHCG); experiment: Test 1 glasshouse assay, pre-emergence herbicidal activity; settings: 312 h, visual evaluation after 13 days, read-out: Percentage phytotoxicity ECHCG
Outline: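 Seeds sown in standard soil were sprayed one day after sowing with active ingredient in acetone/water (50:50) plus 0.5% Tween 20. Plants grew in a glasshouse at 24/16° C day/night, 14 h light, 65% humidity, watered twice daily; phytotoxicity was scored visually after 13 days (0–100%).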

[2] = test system: Brachiaria plantaginea (BRAPL); experiment: Test 2 glasshouse assay (IF50 formulation, X-77), pre-emergence herbicidal activity; settings: Urochloa plantaginea, 480 h, 20DAA, read-out: Percentage phytotoxicity BRAPL
Method: (§1) Seeds of a variety of monocotyledonous and dicotyledonous test plants are sown in standard soil in pots. The plants are cultivated for one day (for pre-emergence) or for about 12 days (for post-emergence) under controlled conditions in a glasshouse (warm climate species at 24/18° C., cool climate species at 20/16° C., both at day/night; 16 hours light; 65% humidity).
(§2) An “instant formulation”, known as the “IF50”, containing 50 g/liter (i.e. 5% w/v) of the “technical” (i.e. unformulated) active ingredient is prepared by dissolving the active ingredient in a mixture of organic solvents and emulsifier, details of which are provided in the Table below. This IF50 is then mixed with a small, variable amount of acetone to aid dissolution, before addition of a 0.2% v/v aqueous solution of the adjuvant X-77 (which is a mixture of alkyl aryl polyoxyethylene glycols and free fatty acids in isopropanol, CAS Registry number 11097-66-8), as the aqueous diluent, to form an aqueous spray solution which contains a predetermined concentration of the active ingredient (which varies depending on the application rate of the active ingredient to the plants) and 0.2% v/v of the adjuvant X-77. This aqueous spray solution is then sprayed onto the plants, after one day's cultivation (for pre-emergence), or after about 12 days' cultivation (range=10-13 days) (for post-emergence).
(§3) The test plants are then grown on, in a glasshouse (greenhouse) under controlled conditions (warm climate species at 24/18° C., cool climate species at 20/16° C., both at day/night; 16 hours light; 65% humidity) and are watered twice daily. 15 days after application of the test herbicide (15DAA) (for post-emergence), and 20 days after application of the test herbicide (20DAA) (for pre-emergence), the test plants are evaluated visually, and an assessed percentage phytotoxicity score is given for each herbicidal application on each plant species (with 100%=total damage to plant; 0%=no damage to plant).
(§4) Warm climate (“warm season”) grassy monocotyledonous weeds: Setaria faberi (SETFA), Panicum miliaceum (PANMI), Sorghum vulgare Pers. (SORVU) (or Sorghum bicolor (L) Moench ssp. Bicolor), Digitaria sanguinalis (DIGSA), Echinochloa crus-galli (ECHCG), and Brachiaria plantaginea (BRAPL).

[3] = test system: Digitaria sanguinalis (DIGSA); experiment: as above; settings: 480 h, 20DAA, read-out: Percentage phytotoxicity DIGSA
Method: as §1, §2, §3, §4

[4] = test system: Echinochloa crus-galli (ECHCG); experiment: as above; settings: 480 h, 20DAA, read-out: Percentage phytotoxicity ECHCG
Method: as §1, §2, §3, §4

[5] = test system: Panicum miliaceum (PANMI); experiment: as above; settings: 480 h, 20DAA, read-out: Percentage phytotoxicity PANMI
Method: as §1, §2, §3, §4

Setaria faberi (SETFA) [6] = experiment: as above; settings: 480 h, 20DAA, read-out: Percentage phytotoxicity SETFA
Method: as §1, §2, §3, §4

[7] = test system: Sorghum vulgare Pers. (SORVU); experiment: as above; settings: Sorghum bicolor, 480 h, 20DAA, read-out: Percentage phytotoxicity SORVU
Method: as §1, §2, §3, §4

[8] = test system: Alopecurus myosuroides (ALOMY); experiment: Test 2 glasshouse assay (IF50 formulation, X-77), post-emergence herbicidal activity; settings: 360 h, 15 DAA, visual score, read-out: Post-emergence herbicidal activity (percentage phytotoxicity) ALOMY; for pest or weed control at 30 g/ha: application rate 30 g/ha; for pest or weed control at 125 g/ha: application rate 125 g/ha; for pest or weed control at 250 g/ha: application rate 250 g/ha
Method: as §1, §2, §3
Cool climate (“cool season”) grassy monocotyledonous weeds: Alopecurus myosuroides (ALOMY), Avena fatua (AVEFA), Lolium perenne (LOLPE).

[9] = test system: Brachiaria plantaginea (BRAPL); experiment: as above; settings: Urochloa plantaginea, 360 h, 15 DAA, visual score, read-out: Post-emergence herbicidal activity (percentage phytotoxicity) BRAPL; for pest or weed control at 30 g/ha: application rate 30 g/ha; for pest or weed control at 250 g/ha: application rate 250 g/ha
Method: as §1, §2, §3, §4

[10] = test system: Digitaria sanguinalis (DIGSA); experiment: as above; settings: 360 h, 15 DAA, visual score, read-out: Post-emergence herbicidal activity (percentage phytotoxicity) DIGSA; for pest or weed control at 30 g/ha: application rate 30 g/ha; for pest or weed control at 125 g/ha: application rate 125 g/ha; for pest or weed control at 250 g/ha: application rate 250 g/ha
Method: as §1, §2, §3, §4

[11] = test system: Echinochloa crus-galli (ECHCG); experiment: as above; settings: 360 h, 15 DAA, visual score, read-out: Post-emergence herbicidal activity (percentage phytotoxicity) ECHCG; for pest or weed control at 30 g/ha: application rate 30 g/ha; for pest or weed control at 125 g/ha: application rate 125 g/ha; for pest or weed control at 250 g/ha: application rate 250 g/ha
Method: as §1, §2, §3, §4

[12] = test system: Panicum miliaceum (PANMI); experiment: as above; settings: 360 h, 15 DAA, visual score, read-out: Post-emergence herbicidal activity (percentage phytotoxicity) PANMI; for pest or weed control at 30 g/ha: application rate 30 g/ha; for pest or weed control at 125 g/ha: application rate 125 g/ha; for pest or weed control at 250 g/ha: application rate 250 g/ha
Method: as §1, §2, §3, §4

Setaria faberi (SETFA) [13] = experiment: as above; settings: 360 h, 15 DAA, visual score, read-out: Post-emergence herbicidal activity (percentage phytotoxicity) SETFA; for pest or weed control at 30 g/ha: application rate 30 g/ha; for pest or weed control at 125 g/ha: application rate 125 g/ha; for pest or weed control at 250 g/ha: application rate 250 g/ha
Method: as §1, §2, §3, §4

[14] = test system: Sorghum vulgare Pers. (SORVU); experiment: as above; settings: Sorghum bicolor, 360 h, 15 DAA, visual score, read-out: Post-emergence herbicidal activity (percentage phytotoxicity) SORVU; for pest or weed control at 30 g/ha: application rate 30 g/ha; for pest or weed control at 125 g/ha: application rate 125 g/ha; for pest or weed control at 250 g/ha: application rate 250 g/ha
Method: as §1, §2, §3, §4

SMILES | pest or weed control at 250 g/ha [1] | pest or weed control at 30 g/ha [8] | pest or weed control at 30 g/ha [9] | pest or weed control at 30 g/ha [10] | pest or weed control at 30 g/ha [11] | pest or weed control at 30 g/ha [12] | pest or weed control at 30 g/ha (Setaria faberi (SETFA) [13]) | pest or weed control at 30 g/ha [14] | pest or weed control at 250 g/ha [2] | pest or weed control at 250 g/ha [3] | pest or weed control at 250 g/ha [4] | pest or weed control at 250 g/ha [5] | pest or weed control at 250 g/ha (Setaria faberi (SETFA) [6]) | pest or weed control at 250 g/ha [7] | pest or weed control at 250 g/ha [8] | pest or weed control at 250 g/ha [9] | pest or weed control at 250 g/ha [10] | pest or weed control at 250 g/ha [11] | pest or weed control at 250 g/ha [12] | pest or weed control at 250 g/ha (Setaria faberi (SETFA) [13]) | also measured
C#CCC1CC(=O)C(c2c(C)cc(-c3ccc(F)cc3)cc2C)C1=O (stereo not drawn) [Compound A1, 2-[4-(4-fluorophenyl)-2,6-dimethyl-phenyl]-4-prop-2-ynylcyclopentane-1,3-dione] | 100% | 60% | 100% | 100% | 100% | 80% | 90% | 90% |  |  |  |  |  |  |  |  |  |  |  |  | pest or weed control at 125 g/ha ([2]; 125 g/ha): 90%; pest or weed control at 125 g/ha ([3]; 125 g/ha): 100%; pest or weed control at 125 g/ha ([4]; 125 g/ha): 90%; pest or weed control at 125 g/ha ([5]; 125 g/ha): 100%; pest or weed control at 125 g/ha (Setaria faberi (SETFA) [6]; 125 g/ha): 100%; pest or weed control at 125 g/ha ([7]; 125 g/ha): 90%; pest or weed control at 125 g/ha [8]: 80%; pest or weed control at 125 g/ha ([9]; application rate 125 g/ha): 100%; pest or weed control at 125 g/ha [10]: 100%; pest or weed control at 125 g/ha [11]: 100%; pest or weed control at 125 g/ha [12]: 100%; pest or weed control at 125 g/ha (Setaria faberi (SETFA) [13]): 100%; pest or weed control at 125 g/ha [14]: 100%
C#CCC1CC(=O)C(c2c(C)cc(-c3ccc(Cl)cn3)cc2C)C1=O (stereo not drawn) [Compound A2] | 100% | 20% | 100% | 100% | 100% | 100% | 100% | 100% | 80% | 70% | 80% | 100% | 90% | 80% | 100% | 100% | 100% | 100% | 100% | 100% | pest or weed control at 250 g/ha [14]: 100%
C#CCC1CC(=O)C(c2c(C)cc(-c3ncc(Cl)cc3F)cc2C)C1=O (stereo not drawn) [Compound A3] | 100% | 80% | 80% | 100% | 100% | 100% | 100% | 100% | 90% | 90% | 80% | 80% | 80% | 80% | 100% | 100% | 100% | 100% | 100% | 100% | pest or weed control at 250 g/ha [14]: 100%
C#CCC1CC(=O)C(c2c(Cl)cc(-c3ccc(F)cc3)cc2OC)C1=O (stereo not drawn) [Compound A7] | 100% | 10% | 100% | 100% | 100% | 100% | 90% | 100% | 90% | 100% | 90% | 100% | 90% | 90% | 100% | 100% | 100% | 100% | 100% | 100% | pest or weed control at 250 g/ha [14]: 100%
C#CCC1CC(=O)C(c2c(C)cc(C)cc2C)C1=O (stereo not drawn) [Compound A23] | 100% |  |  |  |  |  |  |  |  | 90% | 100% | 100% | 90% | 70% |  |  |  |  |  |  | pest or weed control at 125 g/ha [8]: 90%; pest or weed control at 125 g/ha [10]: 100%; pest or weed control at 125 g/ha [11]: 100%; pest or weed control at 125 g/ha [12]: 100%; pest or weed control at 125 g/ha (Setaria faberi (SETFA) [13]): 80%; pest or weed control at 125 g/ha [14]: 90%

Source: patent US10375956B2, “Herbicidally active 2-(substituted-phenyl)-cyclopentane-1,3-dione compounds and derivatives thereof” (Syngenta Limited, priority 2013, dated 2019)
